In brackets after ≈: the same amount, converted by molar mass. Read-outs that look alike come from different tables or passages of the source.
How the values were obtained:
[1] = tested on: RPMI8226 (multiple myeloma); assay: MTT multiple myeloma cell growth inhibition, 72 h; type: cell-based, human; details: for IC50 / IC90: RPMI8226, 72 h; for anti-RPMI8226 (multiple myeloma) effect: result in words, summary of Table 2
Summary of the method: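 Viability determined by MTT after 72 h of compound exposure at 37° C under 5% CO2. Myeloma RPMI8226 cells were seeded at 6000 per well in 1640 medium containing 10% fetal bovine serum.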

[2] = tested on: Becap37 (human breast cancer cell); assay: MTT solid tumor cell growth inhibition, 72 h; type: cell-based; details: Becap37, 72 h
Summary of the method: (§1)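 Cells (4000/well) were seeded in DMEM high glucose with 10% FBS and grown 24 h at 37° C, 5% CO2, then exposed to graded concentrations of homoharringtonine derivatives for 72 h. Viable cells were measured by MTT, with viability expressed as % of untreated control (100%).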

[3] = tested on: MGC 803 (human gastric cancer cell); assay: MTT solid tumor cell growth inhibition, 72 h; type: cell-based; details: MGC 803, 72 h
Summary of the method: as §1

[4] = tested on: RKO (human colon adenocarcinoma cell); assay: MTT solid tumor cell growth inhibition, 72 h; type: cell-based
Summary of the method: as §1

[5] = tested on: Hela (human cervical cancer cell); assay: MTT solid tumor cell growth inhibition, 72 h; type: cell-based
Summary of the method: as §1

[6] = tested on: Hep-2 (human hepatocellular carcinoma); assay: MTT solid tumor cell growth inhibition, 72 h; type: cell-based; details: Hep2, 72 h
Summary of the method: as §1

A549 (human lung cancer) = assay: MTT solid tumor cell growth inhibition, 72 h; type: cell-based; details: A549, 72 h
Summary of the method: as §1

[7] = tested on: Huh7 (human liver cancer cell); assay: MTT solid tumor cell growth inhibition, 72 h; type: cell-based; details: Huh7, 72 h
Summary of the method: as §1

[8] = tested on: U87 MG (malignant glioma cell); assay: MTT solid tumor cell growth inhibition, 72 h; type: cell-based, human
Summary of the method: as §1

MG63 (osteosarcoma) = assay: MTT solid tumor cell growth inhibition, 72 h; type: cell-based, human; details: MG 63, 72 h
Summary of the method: as §1

PC-3 (prostate cancer) = assay: MTT solid tumor cell growth inhibition, 72 h; type: cell-based, human; details: PC-3, 72 h
Summary of the method: as §1

[9] = tested on: SK-OV-3 (ovarian cancer cell); assay: MTT solid tumor cell growth inhibition, 72 h; type: cell-based, human; details: SK-OV-3, 72 h
Summary of the method: as §1

[10] = tested on: CaES-17 (esophageal cancer cell); assay: MTT solid tumor cell growth inhibition, 72 h; type: cell-based, human; details: CaES-17, 72 h
Summary of the method: as §1

[11] = tested on: CNE (nasopharyngeal carcinoma cell); assay: MTT solid tumor cell growth inhibition, 72 h; type: cell-based, human
Summary of the method: as §1

[12] = tested on: PANC-1 (pancreatic cancer); assay: MTT solid tumor cell growth inhibition, 72 h; type: cell-based, human; details: PANC-1, 72 h
Summary of the method: as §1

[13] = tested on: K562/adr, NB4, Kasumi-1 and H9; assay: Anti-leukemia activity, summary over cell lines; type: cell-based, human; details: result in words, summary of Table 1
Source text: Leukemia cell lines: K562/adr (drug-resistant, chronic myeloid leukemia, CML), NB4 (acute promyelocytic leukemia, AML), Kasumi-1 (acute myeloid leukemia M2 type, AML-M2), Jurkat (acute lymphoblastic leukemia, ALL), all of which are donated by Cancer Research Institute of Zhejiang University, China; and H9 (acute lymphoblastic leukemia, ALL), which is purchased from China Center for Type Culture Collection.
Obtaining 6000 well-growing leukemia cells and inoculating them into wells of a 96-well cell culture plate. The culture medium is the 1640 cell culture medium containing 10% fetal bovine serum. After adding the homoharringtonine derivatives of different concentrations and mixing uniformly, placing the plate in a carbon dioxide cell incubator (5% CO2) at 37° C. and incubating for 72 hours. Then the viable cell concentration is determined by the MTT method. In this experiment, the cell viability in control group (not treated with any compound) is set as 100%.

[14] = tested on: A549, PANC-1, Becap37, MG63, Huh7, RKO, Hela, CaES-17, CNE, Hep-2, PC-3 and SK-OV-3; assay: Anti-human solid tumor effect, summary over cell lines; type: cell-based; details: result in words, summary of Table 2
Description: Human solid tumor cell lines: Hep-2 ([…]), A549 (human lung cancer), CaES-17 (esophageal cancer cell), PC-3 (prostate cancer), CNE (nasopharyngeal carcinoma cell), and SK-OV-3 (ovarian cancer cell), all of which are purchased from China Center For Type Culture Collection; RKO (human colon adenocarcinoma cell), MGC 803 (human gastric cancer cell), MG63 (osteosarcoma) and U87 MG (malignant glioma cell), all of which are purchased from Fuxiang Bio-tech Co. Ltd., Shanghai, China; PANC-1 (pancreatic cancer), Huh7 (human liver cancer cell), Becap37 (human breast cancer cell), and Hela (human cervical cancer cell), all of which are donated by Cancer Research Institute of Zhejiang University, China.
Obtaining 4000 well-growing human solid tumor cells and inoculating them into wells of a 96-well cell culture plate. The culture medium is DMEM High Glucose cell culture medium containing 10% fetal bovine serum. The plate is placed in a carbon dioxide cell incubator (5% CO2) at 37° C. and incubating for 24 hours. After adding the homoharringtonine derivatives of different concentration and mixing uniformly, the plate is placed in a carbon dioxide cell incubator (5% CO2) at 37° C. and incubating for 72 hours. Then the viable cell concentration is determined by the MTT method and the cell viability (%) after drug treatment is calculated. In this experiment, the cell viability of control group (not treated with any compound) is set as 100%.

[15] = tested on: H9 (acute lymphoblastic leukemia, ALL); assay: MTT leukemia cell growth inhibition, 72 h; type: cell-based, human; details: H9, 72 h
Summary of the method: (§2)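 6000 cells per well were seeded in RPMI 1640 with 10% FBS, treated with graded concentrations of homoharringtonine derivatives, and incubated 72 h at 37 °C, 5% CO2. Viable cells were measured by MTT, with untreated control set as 100% viability.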

[16] = tested on: K562/adr (drug-resistant, chronic myeloid leukemia, CML); assay: MTT leukemia cell growth inhibition, 72 h; type: cell-based, human
Summary of the method: as §2

[17] = tested on: Jurkat (acute lymphoblastic leukemia, ALL); assay: MTT leukemia cell growth inhibition, 72 h; type: cell-based, human
Summary of the method: as §2

[18] = tested on: Kasumi-1 (acute myeloid leukemia M2 type, AML-M2); assay: MTT leukemia cell growth inhibition, 72 h; type: cell-based, human; details: Kasumi-1, 72 h
Summary of the method: as §2

[19] = tested on: NB4 (acute promyelocytic leukemia, AML); assay: MTT leukemia cell growth inhibition, 72 h; type: cell-based, human; details: NB4, 72 h
Summary of the method: as §2

## COC1=C[C@]23CCCN2CCc2cc4c(cc2[C@@H]3[C@@H]1OC(=O)[C@@](O)(CCCC(C)(C)O)CC(=O)NCc1ccc(C)o1)OCO4 [BS-HH-054, O-3-[(2R)-2,6-dihydroxy-2-(2′-(5-methyl)furan-2-methylamino-2′-oxoethyl)-6-methylheptanoyl]cephalotaxine]
[1]; Homo sapiens, RPMI-8226, read-out: IC50
  IC50: 0.092 µg/mL (≈ 0.147 µM)
[1]; Homo sapiens, RPMI-8226, read-out: IC90
  IC90: 0.24 µg/mL (≈ 0.384 µM)
[1]
  anti-RPMI8226 (multiple myeloma) effect: strong
[2]; Homo sapiens, read-out: IC50
  IC50: 0.14 µg/mL (≈ 0.224 µM)
[2]; Homo sapiens, read-out: IC90
  IC90: 16 µg/mL (≈ 25.6 µM)
[3]; Homo sapiens, read-out: IC50
  IC50: 0.15 µg/mL (≈ 0.24 µM)
[3]; Homo sapiens, read-out: IC90
  IC90: 6 µg/mL (≈ 9.6 µM)
[4]; Homo sapiens, read-out: IC50
  IC50: 2.75 µg/mL (≈ 4.4 µM)
[4]; Homo sapiens, read-out: IC90
  IC90: 6.97 µg/mL (≈ 11.2 µM)
[5]; Homo sapiens, HeLa, read-out: IC50
  IC50: 0.3 µg/mL (≈ 0.48 µM)
[5]; Homo sapiens, HeLa, read-out: IC90
  IC90: > 16 µg/mL
[6]; Homo sapiens, HEp-2, read-out: IC50
  IC50: 0.23 µg/mL (≈ 0.368 µM)
[6]; Homo sapiens, HEp-2, read-out: IC90
  IC90: > 16 µg/mL
A549 (human lung cancer); Homo sapiens, read-out: IC50
  IC50: 0.72 µg/mL (≈ 1.15 µM)
A549 (human lung cancer); Homo sapiens, read-out: IC90
  IC90: > 16 µg/mL
[7]; Homo sapiens, Huh-7, read-out: IC50
  IC50: 0.12 µg/mL (≈ 0.192 µM)
[7]; Homo sapiens, Huh-7, read-out: IC90
  IC90: 16 µg/mL (≈ 25.6 µM)
[8]; Homo sapiens, U-87 MG, read-out: IC50
  IC50: 0.32 µg/mL (≈ 0.512 µM)
[8]; Homo sapiens, U-87 MG, read-out: IC90
  IC90: 16 µg/mL (≈ 25.6 µM)
MG63 (osteosarcoma); Homo sapiens, read-out: IC50
  IC50: 0.12 µg/mL (≈ 0.192 µM)
MG63 (osteosarcoma); Homo sapiens, read-out: IC90
  IC90: 8.07 µg/mL (≈ 12.9 µM)
PC-3 (prostate cancer); Homo sapiens, read-out: IC50
  IC50: 0.46 µg/mL (≈ 0.736 µM)
PC-3 (prostate cancer); Homo sapiens, read-out: IC90
  IC90: > 16 µg/mL
[9]; Homo sapiens, read-out: IC50
  IC50: 0.47 µg/mL (≈ 0.752 µM)
[9]; Homo sapiens, read-out: IC90
  IC90: > 16 µg/mL
[10]; Homo sapiens, CaEs17, read-out: IC50
  IC50: 1.37 µg/mL (≈ 2.19 µM)
[10]; Homo sapiens, CaEs17, read-out: IC90
  IC90: > 16 µg/mL
[11]; Homo sapiens, read-out: IC50
  IC50: 0.15 µg/mL (≈ 0.24 µM)
[11]; Homo sapiens, read-out: IC90
  IC90: 16 µg/mL (≈ 25.6 µM)
[12]; Homo sapiens, read-out: IC50
  IC50: 0.15 µg/mL (≈ 0.24 µM)
[12]; Homo sapiens, read-out: IC90
  IC90: > 16 µg/mL
[13]
  anti-K562/adr, anti-NB4, anti-Kasumi-1 and anti-H9 activity: strong
[14]
  anti-A549, anti-PANC-1, anti-Becap37, anti-MG63, anti-Huh7, anti-RKO, anti-Hela, anti-CaES-17, anti-CNE, anti-Hep-2, anti-PC-3 and anti-SK-OV-3 effect: strong
[15]; Homo sapiens, read-out: IC50
  IC50: 0.17 µg/mL (≈ 0.272 µM)
[15]; Homo sapiens, read-out: IC90
  IC90: 0.43 µg/mL (≈ 0.688 µM)
[16]; Homo sapiens, K562/Adr, read-out: IC50
  IC50: 0.66 µg/mL (≈ 1.06 µM)
[16]; Homo sapiens, K562/Adr, read-out: IC90
  IC90: 4.4 µg/mL (≈ 7.04 µM)
[17]; Homo sapiens, read-out: IC50
  IC50: 0.11 µg/mL (≈ 0.176 µM)
[17]; Homo sapiens, read-out: IC90
  IC90: 16 µg/mL (≈ 25.6 µM)
[18]; Homo sapiens, read-out: IC50
  IC50: 0.053 µg/mL (≈ 0.0848 µM)
[18]; Homo sapiens, read-out: IC90
  IC90: 0.19 µg/mL (≈ 0.304 µM)
[19]; Homo sapiens, read-out: IC50
  IC50: 0.09 µg/mL (≈ 0.144 µM)
[19]; Homo sapiens, read-out: IC90
  IC90: 0.2 µg/mL (≈ 0.32 µM)

## O-3-[(2R)-2,6-dihydroxy-2-(2′-pyrrolyl-2′-oxoethyl)-6-methylheptanoyl]cephalotaxine [BS-HH-012]
[1]
  IC50: 0.057 µg/mL
  IC90: 0.36 µg/mL
  anti-RPMI8226 (multiple myeloma) effect: strong
[2]
  IC50: 0.26 µg/mL
  IC90: 16 µg/mL
[3]
  IC50: 0.24 µg/mL
  IC90: 6.84 µg/mL
[4]
  IC50: 0.11 µg/mL
  IC90: 0.43 µg/mL
[5]; Hela
  IC50: 0.35 µg/mL
  IC90: >16 µg/mL
[6]
  IC50: 0.15 µg/mL
  IC90: >16 µg/mL
A549 (human lung cancer)
  IC50: 0.45 µg/mL
  IC90: >16 µg/mL
[7]
  IC50: 0.2 µg/mL
  IC90: >16 µg/mL
[8]
  IC50: 0.24 µg/mL
  IC90: 1.13 µg/mL
MG63 (osteosarcoma)
  IC50: 0.18 µg/mL
  IC90: >16 µg/mL
PC-3 (prostate cancer)
  IC50: 0.32 µg/mL
  IC90: >16 µg/mL
[9]
  IC50: 0.41 µg/mL
  IC90: >16 µg/mL
[10]
  IC50: 0.43 µg/mL
  IC90: >16 µg/mL
[11]
  IC50: 0.13 µg/mL
  IC90: >16 µg/mL
[12]
  IC50: 0.26 µg/mL
  IC90: >16 µg/mL
[13]
  anti-K562/adr, anti-NB4, anti-Kasumi-1 and anti-H9 activity: strong
[14]
  anti-A549, anti-PANC-1, anti-Becap37, anti-MG63, anti-Huh7, anti-RKO, anti-Hela, anti-CaES-17, anti-CNE, anti-Hep-2, anti-PC-3 and anti-SK-OV-3 effect: strong
[15]
  IC50: 0.27 µg/mL
  IC90: 3.49 µg/mL
[16]; K562/adr
  IC50: 0.65 µg/mL
  IC90: 9.87 µg/mL
[17]
  IC50: 0.058 µg/mL
  IC90: 16 µg/mL
[18]
  IC50: 0.038 µg/mL
  IC90: 0.14 µg/mL
[19]
  IC50: 0.08 µg/mL
  IC90: 0.23 µg/mL
